In patent US6472348B1, “Pyridone derivatives and herbicides” (Kumiai Chemical Industry Co., Ltd., priority 1996, dated 2002):

What was measured:
barnyardgrass (Ec) [1] = assay: Test Example 1: herbicidal effects by paddy field soil treatment; type: in vivo; settings: 100 g of the active ingredient per 10 ares, 21st day after the application, index 0-5 of Table 47;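 note: grade of growth control; 5 = at least 90%; 4 = 70 to 90%; 3 = 50 to 70%; 2 = 30 to 50%; 1 = 10 to 30%; 0 = under 10%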
Procedure, shortened: (§1)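 Herbicidal effect was scored against a graded standard 21 days after treatment. Seeds were sown in puddled, leveled paddy soil flooded to 3 cm depth, and the active ingredient was applied at 100 g per 10 ares before greenhouse culture.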

bulrush (Sc) = assay: as above; type: in vivo; settings: 100 g of the active ingredient per 10 ares, 21st day after the application, index 0-5 of Table 47;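 note: grade of growth control; 5 = at least 90%; 4 = 70 to 90%; 3 = 50 to 70%; 2 = 30 to 50%; 1 = 10 to 30%; 0 = under 10%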
Procedure, shortened: as §1

monochoria (Mo) = assay: as above; type: in vivo; settings: 100 g of the active ingredient per 10 ares, 21st day after the application, index 0-5 of Table 47;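 note: grade of growth control; 5 = at least 90%; 4 = 70 to 90%; 3 = 50 to 70%; 2 = 30 to 50%; 1 = 10 to 30%; 0 = under 10%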
Procedure, shortened: as §1

Digitaria ciliaris (Di) = assay: Test Example 2: herbicidal effects by upland field soil treatment; type: in vivo; settings: 100 g of the active ingredient per 10 ares, 21st day after the application, index 0-5 of Table 47;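 note: grade of growth control; 5 = at least 90%; 4 = 70 to 90%; 3 = 50 to 70%; 2 = 30 to 50%; 1 = 10 to 30%; 0 = under 10%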
From the text: (§2) (Test on Herbicidal Effects by Upland Field Soil Treatment)

barnyardgrass (Ec) [2] = assay: as above; type: in vivo; settings: 100 g of the active ingredient per 10 ares, 21st day after the application, index 0-5 of Table 47
From the text: as §2

[3] = test system: common lambsquarters (Ch); assay: as above; type: in vivo; settings: 100 g of the active ingredient per 10 ares, 21st day after the application, index 0-5 of Table 47
From the text: as §2

pale smartweed (Po) [4] = assay: as above; type: in vivo; settings: 100 g of the active ingredient per 10 ares, 21st day after the application, index 0-5 of Table 47
From the text: as §2

rice flatsedge (Ci) [5] = assay: as above; type: in vivo; settings: 100 g of the active ingredient per 10 ares, 21st day after the application, index 0-5 of Table 47
From the text: as §2

slender amaranth (Am) [6] = assay: as above; type: in vivo; settings: 100 g of the active ingredient per 10 ares, 21st day after the application, index 0-5 of Table 47
From the text: as §2

Diaitaria ciliaris (Di) = assay: Test Example 3: herbicidal effects by upland field foliage treatment; type: in vivo; design: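 grade of growth control; 5 = at least 90%; 4 = 70 to 90%; 3 = 50 to 70%; 2 = 30 to 50%; 1 = 10 to 30%; 0 = under 10%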; settings: 100 g of the active ingredient per 10 ares, evaluated on the 14th day after treatment
Procedure, shortened: (§3)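 Using plants cultured for 2 weeks in a greenhouse from seed sown in soil-covered sand (pots 120 cm^2), the compounds were applied to foliage, and weed control was graded by standard criteria 14 days thereafter.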

barnyardgrass (Ec) [7] = assay: as above; type: in vivo; design: scale not given here; settings: 100 g of the active ingredient per 10 ares, evaluated on the 14th day after treatment
Procedure, shortened: as §3

[8] = test system: common lambsquarters (Ch); assay: as above; type: in vivo; design: scale not given here; settings: 100 g of the active ingredient per 10 ares, evaluated on the 14th day after treatment
Procedure, shortened: as §3

pale smartweed (Po) [9] = assay: as above; type: in vivo; design: scale not given here; settings: 100 g of the active ingredient per 10 ares, evaluated on the 14th day after treatment
Procedure, shortened: as §3

rice flatsedge (Ci) [10] = assay: as above; type: in vivo; design: scale not given here; settings: 100 g of the active ingredient per 10 ares, evaluated on the 14th day after treatment
Procedure, shortened: as §3

slender amaranth (Am) [11] = assay: as above; type: in vivo; design: scale not given here; settings: 100 g of the active ingredient per 10 ares, evaluated on the 14th day after treatment
Procedure, shortened: as §3

corn (Ze) [12] = assay: Test Example 11: crop plant selectivity by upland field foliage treatment (corn), phytotoxicity; settings: upland field foliage treatment, dose 1.6 g ai/10a, 14th day after treatment
Method: (§4) (Test on Crop Plant Selectivity by Upland Field Foliage Treatment)
(§5) In a plastic pot (surface area: 600 cm^2) filled with sand, corn (Ze), pale smartweed (Po), slender amaranth (Am), common lambsquarters (Ch) and China jute (Ab) were sown and cultured in a green house for 2 weeks. […] The plants were then cultured in a green house, and the evaluation of the herbicidal effects and phytotoxicity was conducted on the 14th day after the treatment in accordance with the standards as identified in Table 47.

China jute (Ab) [13] = assay: Test Example 11: crop plant selectivity by upland field foliage treatment (corn), herbicidal effects; type: in vivo; design: scale not given here; settings: upland field foliage treatment (corn test), dose 1.6 g ai/10a, 14th day after treatment
Method: as §4, §5

[14] = test system: common lambsquarters (Ch); assay: as above; type: in vivo; design: scale not given here; settings: upland field foliage treatment (corn test), dose 1.6 g ai/10a, 14th day after treatment
Method: as §4, §5

pale smartweed (Po) [15] = assay: as above; type: in vivo; design: scale not given here; settings: upland field foliage treatment (corn test), dose 1.6 g ai/10a, 14th day after treatment
Method: as §4, §5

slender amaranth (Am) [16] = assay: as above; type: in vivo; design: scale not given here; settings: upland field foliage treatment (corn test), dose 1.6 g ai/10a, 14th day after treatment
Method: as §4, §5

cotton (Go) = assay: Test Example 4: crop plant selectivity by upland field soil treatment (cotton), phytotoxicity; type: in vivo; design: scale not given here; settings: dose 6.3 g ai/10 a, evaluated 21st day after application
Procedure, shortened: (§6)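 Upland soil treatment: crop and weed seeds in sand pots under a soil cover, compound applied to soil, greenhouse-grown, rated visually 21 d later.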

China jute (Ab) [17] = assay: Test Example 4: crop plant selectivity by upland field soil treatment (cotton), herbicidal effects; type: in vivo; design: scale not given here; settings: dose 6.3 g ai/10 a, evaluated 21st day after application
Procedure, shortened: as §6

[18] = test system: common lambsquarters (Ch); assay: as above; type: in vivo; design: scale not given here; settings: dose 6.3 g ai/10 a, evaluated 21st day after application
Procedure, shortened: as §6

green foxtail (Se) [19] = assay: as above; type: in vivo; design: scale not given here; settings: dose 6.3 g ai/10 a, evaluated 21st day after application
Procedure, shortened: as §6

pale smartweed (Po) [20] = assay: as above; type: in vivo; design: scale not given here; settings: dose 6.3 g ai/10 a, evaluated 21st day after application
Procedure, shortened: as §6

slender amaranth (Am) [21] = assay: as above; type: in vivo; design: scale not given here; settings: dose 6.3 g ai/10 a, evaluated 21st day after application
Procedure, shortened: as §6

wheat (Tr) = assay: Test Example 5: crop plant selectivity by upland field soil treatment (wheat), phytotoxicity; type: in vivo; design: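 grade of crop injury; 5 = at least 90%; 4 = 70 to 90%; 3 = 50 to 70%; 2 = 30 to 50%; 1 = 10 to 30%; 0 = under 10%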; settings: dose 6.3 g ai/10a, 21st day after application
Procedure, shortened: (§7)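 Upland soil-treatment selectivity test: crop and weed seeds are sown together in sand-filled pots, soil-covered, then treated and grown under glass until rating at 21 days.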

China jute (Ab) [22] = assay: Test Example 5: crop plant selectivity by upland field soil treatment (wheat), herbicidal effects; type: in vivo; design: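 grade of growth control; 5 = at least 90%; 4 = 70 to 90%; 3 = 50 to 70%; 2 = 30 to 50%; 1 = 10 to 30%; 0 = under 10%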; settings: dose 6.3 g ai/10a, 21st day after application
Procedure, shortened: as §7

[23] = test system: common lambsquarters (Ch); assay: as above; type: in vivo; design: scale not given here; settings: dose 6.3 g ai/10a, 21st day after application
Procedure, shortened: as §7

green foxtail (Se) [24] = assay: as above; type: in vivo; design: scale not given here; settings: dose 6.3 g ai/10a, 21st day after application
Procedure, shortened: as §7

pale smartweed (Po) [25] = assay: as above; type: in vivo; design: scale not given here; settings: dose 6.3 g ai/10a, 21st day after application
Procedure, shortened: as §7

slender amaranth (Am) [26] = assay: as above; type: in vivo; design: scale not given here; settings: dose 6.3 g ai/10a, 21st day after application
Procedure, shortened: as §7

soybean (Gl) = assay: Test Example 6: crop plant selectivity by upland field soil treatment (soybean), phytotoxicity; type: in vivo; design: scale not given here; settings: dose 6.3 g ai/10a, 21st day after application
Procedure, shortened: (§8)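 Soybean and weed seeds were sown in sand-filled pots and covered with soil, then given a pre-emergence soil application. Plants were grown on in a greenhouse, and herbicidal effect and crop phytotoxicity were scored against a set rating scale 21 days after application.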

China jute (Ab) [27] = assay: Test Example 6: crop plant selectivity by upland field soil treatment (soybean), herbicidal effects; type: in vivo; design: scale not given here; settings: dose 6.3 g ai/10a, 21st day after application
Procedure, shortened: as §8

[28] = test system: common lambsquarters (Ch); assay: as above; type: in vivo; design: scale not given here; settings: dose 6.3 g ai/10a, 21st day after application
Procedure, shortened: as §8

green foxtail (Se) [29] = assay: as above; type: in vivo; design: scale not given here; settings: dose 6.3 g ai/10a, 21st day after application
Procedure, shortened: as §8

pale smartweed (Po) [30] = assay: as above; type: in vivo; design: scale not given here; settings: dose 6.3 g ai/10a, 21st day after application
Procedure, shortened: as §8

slender amaranth (Am) [31] = assay: as above; type: in vivo; design: scale not given here; settings: dose 6.3 g ai/10a, 21st day after application
Procedure, shortened: as §8

corn (Ze) [32] = assay: Test Example 7: crop plant selectivity by upland field soil treatment (corn), phytotoxicity; type: in vivo; design: scale not given here; settings: dose 6.3 g ai/10a, 21st day after application
Procedure, shortened: (§9)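 Greenhouse pot test in sand with soil cover over seeds of corn and weeds sown together; scored 21 d after treatment.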

China jute (Ab) [33] = assay: Test Example 7: crop plant selectivity by upland field soil treatment (corn), herbicidal effects; type: in vivo; design: scale not given here; settings: dose 6.3 g ai/10a, 21st day after application
Procedure, shortened: as §9

[34] = test system: common lambsquarters (Ch); assay: as above; type: in vivo; design: scale not given here; settings: dose 6.3 g ai/10a, 21st day after application
Procedure, shortened: as §9

green foxtail (Se) [35] = assay: as above; type: in vivo; design: scale not given here; settings: dose 6.3 g ai/10a, 21st day after application
Procedure, shortened: as §9

pale smartweed (Po) [36] = assay: as above; type: in vivo; design: scale not given here; settings: dose 6.3 g ai/10a, 21st day after application
Procedure, shortened: as §9

slender amaranth (Am) [37] = assay: as above; type: in vivo; design: scale not given here; settings: dose 6.3 g ai/10a, 21st day after application
Procedure, shortened: as §9

## CC(C)OC(=O)c1cc(-c2ccc(C(F)(F)F)n(C)c2=O)c(F)cc1Cl [Compound No. 1-66, isopropyl 5-(1-methyl-6-trifluoromethyl-2(1H)-pyridon-3-yl)-2-chloro-4-fluorobenzoate]
Barnyardgrass (Ec) [1]
  Herbicidal effects Ec: 5
Bulrush (Sc)
  Herbicidal effects Sc: 5
Monochoria (Mo)
  Herbicidal effects Mo: 5
Digitaria ciliaris (Di)
  Herbicidal effects Di: 5
Barnyardgrass (Ec) [2]
  Herbicidal effects Ec: 5
[3]
  Herbicidal effects Ch: 5
Pale smartweed (Po) [4]
  Herbicidal effects Po: 5
Rice flatsedge (Ci) [5]
  Herbicidal effects Ci: 5
Slender amaranth (Am) [6]
  Herbicidal effects Am: 5
Diaitaria ciliaris (Di)
  Herbicidal effects Di: 5
Barnyardgrass (Ec) [7]
  Herbicidal effects Ec: 5
[8]
  Herbicidal effects Ch: 5
Pale smartweed (Po) [9]
  Herbicidal effects Po: 5
Rice flatsedge (Ci) [10]
  Herbicidal effects Ci: 5
Slender amaranth (Am) [11]
  Herbicidal effects Am: 5
Corn (Ze) [12]
  Phytotoxicity Ze: 2
China jute (Ab) [13]
  Herbicidal effects Ab: 5
[14]
  Herbicidal effects Ch: 5
Pale smartweed (Po) [15]
  Herbicidal effects Po: 5
Slender amaranth (Am) [16]
  Herbicidal effects Am: 5

## CSc1cc(-c2ccc(C(F)(F)F)n(C)c2=O)c(F)cc1Cl [Compound No. 1-87, 3-(4-chloro-2-fluoro-5-methylthiophenyl)-1-methyl-6-trifluoromethyl-2(1H)-pyridone]
Barnyardgrass (Ec) [1]
  Herbicidal effects Ec: 5
Bulrush (Sc)
  Herbicidal effects Sc: 5
Monochoria (Mo)
  Herbicidal effects Mo: 5
Digitaria ciliaris (Di)
  Herbicidal effects Di: 5
Barnyardgrass (Ec) [2]
  Herbicidal effects Ec: 5
[3]
  Herbicidal effects Ch: 5
Pale smartweed (Po) [4]
  Herbicidal effects Po: 5
Rice flatsedge (Ci) [5]
  Herbicidal effects Ci: 5
Slender amaranth (Am) [6]
  Herbicidal effects Am: 5
Diaitaria ciliaris (Di)
  Herbicidal effects Di: 5
Barnyardgrass (Ec) [7]
  Herbicidal effects Ec: 5
[8]
  Herbicidal effects Ch: 5
Pale smartweed (Po) [9]
  Herbicidal effects Po: 5
Rice flatsedge (Ci) [10]
  Herbicidal effects Ci: 5
Slender amaranth (Am) [11]
  Herbicidal effects Am: 5
Cotton (Go)
  Phytotoxicity Go: 1
China jute (Ab) [17]
  Herbicidal effects Ab: 5
[18]
  Herbicidal effects Ch: 5
Green foxtail (Se) [19]
  Herbicidal effects Se: 5
Pale smartweed (Po) [20]
  Herbicidal effects Po: 5
Slender amaranth (Am) [21]
  Herbicidal effects Am: 5
Wheat (Tr)
  Phytotoxicity Tr: 1
China jute (Ab) [22]
  Herbicidal effects Ab: 5
[23]
  Herbicidal effects Ch: 5
Green foxtail (Se) [24]
  Herbicidal effects Se: 5
Pale smartweed (Po) [25]
  Herbicidal effects Po: 5
Slender amaranth (Am) [26]
  Herbicidal effects Am: 5
Soybean (Gl)
  Phytotoxicity Gl: 1
China jute (Ab) [27]
  Herbicidal effects Ab: 5
[28]
  Herbicidal effects Ch: 5
Green foxtail (Se) [29]
  Herbicidal effects Se: 5
Pale smartweed (Po) [30]
  Herbicidal effects Po: 5
Slender amaranth (Am) [31]
  Herbicidal effects Am: 5
Corn (Ze) [32]
  Phytotoxicity Ze: 1
China jute (Ab) [33]
  Herbicidal effects Ab: 5
[34]
  Herbicidal effects Ch: 5
Green foxtail (Se) [35]
  Herbicidal effects Se: 5
Pale smartweed (Po) [36]
  Herbicidal effects Po: 5
Slender amaranth (Am) [37]
  Herbicidal effects Am: 5
